Results published in patent publication US20220380368A1, “SPIROCYCLIC ANDROGEN RECEPTOR PROTEIN DEGRADERS” (THE REGENTS OF THE UNIVERSITY OF MICHIGAN, priority 2019, published 2022).
Like-named read-outs stand apart in the source and are kept apart here.

Legend:
AR protein = target: T1, AR protein (Homo sapiens, UniProt P10275); experiment: Western blotting analysis of AR protein levels in VCaP cells, band quantification, DC50/DC90; format: cell-based; conditions: VCaP cells, Table 6; read-out: VCaP DC50
T1 construct: endogenous in cells; host or cells: VCaP
T1 sequence (P10275 1-920): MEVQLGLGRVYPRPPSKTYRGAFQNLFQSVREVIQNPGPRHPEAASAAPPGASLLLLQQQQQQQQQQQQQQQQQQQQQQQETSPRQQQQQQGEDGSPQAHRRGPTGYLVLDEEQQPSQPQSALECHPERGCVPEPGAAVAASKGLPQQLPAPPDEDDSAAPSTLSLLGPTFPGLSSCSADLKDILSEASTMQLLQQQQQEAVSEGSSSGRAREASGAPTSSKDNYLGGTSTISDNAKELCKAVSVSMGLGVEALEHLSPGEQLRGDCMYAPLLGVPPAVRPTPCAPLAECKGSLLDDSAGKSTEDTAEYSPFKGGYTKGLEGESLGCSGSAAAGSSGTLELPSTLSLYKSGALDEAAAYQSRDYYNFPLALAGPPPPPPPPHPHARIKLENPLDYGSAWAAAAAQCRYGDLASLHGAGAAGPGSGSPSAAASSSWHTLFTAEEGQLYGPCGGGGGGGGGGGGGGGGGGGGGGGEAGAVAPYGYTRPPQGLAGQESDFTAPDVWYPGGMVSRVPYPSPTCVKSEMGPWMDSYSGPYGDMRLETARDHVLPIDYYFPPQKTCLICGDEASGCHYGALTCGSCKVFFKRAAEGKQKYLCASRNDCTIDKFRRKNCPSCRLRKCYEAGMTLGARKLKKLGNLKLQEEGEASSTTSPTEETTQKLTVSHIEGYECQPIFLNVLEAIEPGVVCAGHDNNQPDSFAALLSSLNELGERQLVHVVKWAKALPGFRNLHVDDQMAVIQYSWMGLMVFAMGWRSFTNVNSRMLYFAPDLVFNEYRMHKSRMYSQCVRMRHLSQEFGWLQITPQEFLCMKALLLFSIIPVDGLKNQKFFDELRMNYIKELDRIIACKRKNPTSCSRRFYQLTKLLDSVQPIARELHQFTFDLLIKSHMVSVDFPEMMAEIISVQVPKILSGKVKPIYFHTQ
Procedure: The appropriate cell line, e.g., prostate cancer LNCaP, Vcap, or 22RV1 cell line, was treated with Compounds of the Disclosure as indicated. The treated cells were lysed with RIPA buffer. […] GAPDH was used as a loading control.
Bands were quantified with ImageJ software. The relative numbers of each band obtained from normalization with its corresponding GAPDH level were compared with Prism 8 software. The DC50 values were produced from Prism 8, and the DC90 values were calculated with an equation=Bottom+(Top−Bottom)/(1+10^((Log EC50−X)*HillSlope) based on DC50 and Hillslope values.

[1] = Mouse PK studies after oral and IV dosing; format: in vivo; conditions: for F: PO 3 mg/kg vs IV 1 mg/kg; for AUC(0-t) / clearance / half-life / Vd / Cmax / Tmax: in vivo; for clearance: read-out: IV Cl (converted); for Vd: read-out: IV VSS
Procedure: The pharmacokinetics of representative Compounds of the Disclosure were determined after oral and IV dosing at the concentrations indicated in mouse (Table 7). […] The vehicles used in these studies are either (i) 10% PEG400+90% PBS (adjusted to pH to 8.0 by 0.5 N NaOH); or (ii) 100% PEG200.

[2] = iv, 1 mg/kg, IV, dose 1 mg/kg, read-out: IV AUC(0 − t)
[3] = iv, 1 mg/kg, IV, dose 1 mg/kg, read-out: IV T1/2 (converted)
[4] = po, 3 mg/kg, PO, dose 3 mg/kg, read-out: PO AUC(0 − t)
[5] = po, 3 mg/kg, PO, dose 3 mg/kg, read-out: PO T1/2 (converted)

Row | Compound | DC50 (AR protein) | F [1] | AUC(0-t) [1, 2] | clearance ([1]; iv, 1 mg/kg, IV, dose 1 mg/kg) | half-life [1, 3] | Vd ([1]; iv, 1 mg/kg, IV, dose 1 mg/kg) | Cmax ([1]; po, 3 mg/kg) | Tmax ([1]; po, 3 mg/kg) | AUC(0-t) [1, 4] | half-life [1, 5]
1 | C[C@H]1CC2(CCN(c3ncc(C(=O)N4CCN(C5CCN(c6ccc7c(c6)C(=O)N(C6CCC(=O)NC6=O)C7=O)CC5)CC4)cn3)CC2)CN1c1ccc(C#N)c(Cl)c1 (stereo partly drawn) [Cpd. No. 513, 2-chloro-4-((3S)-8-(5-(4-(1-(2-(2,6-dioxopiperidin-3-yl)-1,3-dioxoisoindolin-5-yl)piperidin-4-yl)piperazine-1-carbonyl)pyrimidin-2-yl)-3-methyl-2,8-diazaspiro[4.5]decan-2-yl)benzonitrile] | < 1 nM |  |  |  |  |  |  |  |  | 
2 | C[C@H]1CC2(CCN(c3ccc(C(=O)N4CC(N5CCN(c6cc7c(cc6F)C(=O)N(C6CCC(=O)NC6=O)C7=O)CC5)C4)nn3)CC2)CN1c1ccc(C#N)c(Cl)c1 (stereo partly drawn) [Cpd. No. 537, 2-chloro-4-((3S)-8-(6-(3-(4-(2-(2,6-dioxopiperidin-3-yl)-6-fluoro-1,3-dioxoisoindolin-5-yl)piperazin-1-yl)azetidine-1-carbonyl)pyridazin-3-yl)-3-methyl-2,8-diazaspiro[4.5]decan-2-yl)benzonitrile] | 1 to 10 nM |  |  |  |  |  |  |  |  | 
3 | C[C@H]1CC2(CCN(c3ccc(C(=O)N4CCC(CN5CCN(c6cc7c(cc6F)C(=O)N(C6CCC(=O)NC6=O)C7=O)CC5)CC4)cc3)CC2)CN1c1ccc(C#N)c(Cl)c1 (stereo partly drawn) [Cpd. No. 444, 2-chloro-4-((3S)-8-(4-(4-((4-(2-(2,6-dioxopiperidin-3-yl)-6-fluoro-1,3-dioxoisoindolin-5-yl)piperazin-1-yl)methyl)piperidine-1-carbonyl)phenyl)-3-methyl-2,8-diazaspiro[4.5]decan-2-yl)benzonitrile] |  | 68% | 7800 ng·h/mL | 1.83 mL/min/kg | 8.3 h | 1.2 L/kg | 1250 ng/mL | 4 h | 16000 ng·h/mL | 6.9 h
4 | C[C@H]1CC2(CCN(c3ccc(C(=O)N4CCN(C5CCN(c6ccc7c(c6)C(=O)N(C6CCC(=O)NC6=O)C7=O)CC5)CC4)cc3)CC2)CN1c1ccc(C#N)c(Cl)c1 (some centres unmarked) [Cpd. No. 302] |  | 27% | 5030 ng·h/mL | 3.17 mL/min/kg | 7 h | 1.45 L/kg | 526 ng/mL | 1.3 h | 4050 ng·h/mL | 7.3 h
5 | C[C@H]1CC2(CCN(c3ccc(C(=O)N4CCN(C5CN(c6ccc7c(c6)C(=O)N(C6CCC(=O)NC6=O)C7)C5)CC4)cc3)CC2)CN1c1ccc(C#N)c(Cl)c1 (stereo partly drawn) [Cpd. No. 348, 2-chloro-4-((3S)-8-(4-(4-(1-(2-(2,6-dioxopiperidin-3-yl)-3-oxoisoindolin-5-yl)azetidin-3-yl)piperazine-1-carbonyl)phenyl)-3-methyl-2,8-diazaspiro[4.5]decan-2-yl)benzonitrile] |  | 12% | 10100 ng·h/mL | 1.67 mL/min/kg | 7.5 h | 0.9 L/kg | 334 ng/mL | 2 h | 3740 ng·h/mL | 7.6 h
6 | C[C@H]1CC2(CCN(c3cnc(C(=O)N4CCC(CN5Cc6cc7c(cc6C5)C(=O)N(C5CCC(=O)NC5=O)C7=O)CC4)cn3)CC2)CN1c1ccc(C#N)c(Cl)c1 (stereo partly drawn) [Cpd. No. 495, 2-chloro-4-((3S)-8-(5-(4-((6-(2,6-dioxopiperidin-3-yl)-5,7-dioxo-3,5,6,7-tetrahydropyrrolo[3,4-f]isoindol-2(1H)-yl)methyl)piperidine-1-carbonyl)pyrazin-2-yl)-3-methyl-2,8-diazaspiro[4.5]decan-2-yl)benzonitrile] |  | 107% | 950 ng·h/mL | 16.2 mL/min/kg | 2.6 h | 2.59 L/kg | 722 ng/mL | 0.8 h | 3050 ng·h/mL | 3.4 h
7 | C[C@H]1CC2(CCN(c3ccc(C(=O)N4CCN(C5CN(c6ccc7c(c6)CN(C6CCC(=O)NC6=O)C7=O)C5)CC4)cc3)CC2)CN1c1ccc(C#N)c(Cl)c1 (stereo partly drawn) [Cpd. No. 346, 2-chloro-4-((3S)-8-(4-(4-(1-(2-(2,6-dioxopiperidin-3-yl)-1-oxoisoindolin-5-yl)azetidin-3-yl)piperazine-1-carbonyl)phenyl)-3-methyl-2,8-diazaspiro[4.5]decan-2-yl)benzonitrile] |  | 32% | 3030 ng·h/mL | 5 mL/min/kg | 8.8 h | 2.7 L/kg | 260 ng/mL | 3.3 h | 2950 ng·h/mL | 7.2 h
8 | C[C@H]1CC2(CCN(c3ccc(C(=O)N4CCN(C5CN(c6cc7c(cc6F)C(=O)N(C6CCC(=O)NC6=O)C7=O)C5)CC4)cc3)CC2)CN1c1ccc(C#N)c(Cl)c1 (stereo partly drawn) [Cpd. No. 344, 2-chloro-4-((3S)-8-(4-(4-(1-(2-(2,6-dioxopiperidin-3-yl)-6-fluoro-1,3-dioxoisoindolin-5-yl)azetidin-3-yl)piperazine-1-carbonyl)phenyl)-3-methyl-2,8-diazaspiro[4.5]decan-2-yl)benzonitrile] |  | 64% | 4930 ng·h/mL | 3.17 mL/min/kg | 6.9 h | 1.58 L/kg | 841 ng/mL | 4 h | 9470 ng·h/mL | 6 h
9 | C[C@H]1CC2(CCN(c3ccc(C(=O)N4CCC(CN5CCN(c6ccc7c(c6)C(=O)N(C6CCC(=O)NC6=O)C7=O)CC5)CC4)cc3)CC2)CN1c1ccc(C#N)c(Cl)c1 (stereo partly drawn) [Cpd. No. 442, 2-chloro-4-((3S)-8-(4-(4-((4-(2-(2,6-dioxopiperidin-3-yl)-1,3-dioxoisoindolin-5-yl)piperazin-1-yl)methyl)piperidine-1-carbonyl)phenyl)-3-methyl-2,8-diazaspiro[4.5]decan-2-yl)benzonitrile] |  | 42% | 5240 ng·h/mL | 2.83 mL/min/kg | 9.2 h | 1.7 L/kg | 847 ng/mL | 2.67 h | 6570 ng·h/mL | 5.37 h
10 | C[C@H]1CC2(CCN(c3ccc(C(=O)N4CC[C@@H](CN5CCN(c6ccc7c(c6)C(=O)N(C6CCC(=O)NC6=O)C7=O)CC5)C4)cc3)CC2)CN1c1ccc(C#N)c(Cl)c1 (some centres unmarked) [compound 448] |  | 26% | 78 ng·h/mL | 203 mL/min/kg | 2.74 h | 25.3 L/kg | 16 ng/mL | 1.67 h | 60 ng·h/mL | 4.78 h
11 | C[C@H]1CC2(CCN(c3ccc(C(=O)N4CCN(C5CCN(c6cc7c(cc6F)C(=O)N(C6CCC(=O)NC6=O)C7=O)CC5)CC4)cc3)CC2)CN1c1ccc(C#N)c(Cl)c1 (some centres unmarked) [Cpd. No. 540] |  | 61% | 7990 ng·h/mL | 2 mL/min/kg | 7.3 h | 0.96 L/kg | 1130 ng/mL | 3.3 h | 14500 ng·h/mL | 7.8 h
12 | C[C@H]1CC2(CCN(c3ccc(C(=O)N4CCC(N5CCN(c6ccc7c(c6)C(=O)N(C6CCC(=O)NC6=O)C7=O)CC5)CC4)cc3)CC2)CN1c1ccc(C#N)c(Cl)c1 (stereo partly drawn) [Cpd. No. 443, 2-chloro-4-((3S)-8-(4-(4-(4-(2-(2,6-dioxopiperidin-3-yl)-1,3-dioxoisoindolin-5-yl)piperazin-1-yl)piperidine-1-carbonyl)phenyl)-3-methyl-2,8-diazaspiro[4.5]decan-2-yl)benzonitrile] |  | 67% | 8440 ng·h/mL | 2 mL/min/kg | 7.1 h | 1.02 L/kg | 1870 ng/mL | 2 h | 15500 ng·h/mL | 5.38 h
13 | C[C@H]1CC2(CCN(c3ccc(C(=O)N4CCN(CC5CCN(c6cc7c(cc6F)C(=O)N(C6CCC(=O)NC6=O)C7=O)CC5)CC4)nn3)CC2)CN1c1ccc(C#N)c(Cl)c1 (some centres unmarked) [compound 588] |  | 54% | 1080 ng·h/mL | 13.8 mL/min/kg | 9.5 h | 6.76 L/kg | 347 ng/mL | 1 h | 1760 ng·h/mL | 5.9 h
